Test systems include KM12; IGROV-1; SK-MEL-5; MDA-MB-231; BT-549; PC-3; MCF7; SNB-75; CCRF-CEM; SNB-19; SK-OV-3; HL-60; OVCAR-3; T47D; OVCAR-5; UACC-62; SF-268; LOX IMVI; SR; HOP-92.
Test in all cases: NCI-60 cell line screen, 48 h

The structures appear in SMILES notation.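 A five-concentration, 48-hour dose response in 96-well plates underlies each endpoint, interpolated linearly between surrounding concentrations. Here, GI50 denotes the concentration required for 50% inhibition of growth.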 Active and inactive are the calls of the source. Cut-off read from the data, not from the text of the source: active = GI50 up to about 1.1 µM and inactive = higher. Where only a bound is given, the exact number is not on record here.

As for `CC1CCCN(CC(O)CN2CCCc3ccccc32)C1` (configuration not stated), the GI50 in the assay on KM12, in the assay on IGROV-1, in the assay with SK-MEL-5, with MDA-MB-231, in the assay with BT-549 and in the assay on PC-3 was > 100 µM (inactive) each time. The GI50 was > 100 µM (inactive) with MCF7; > 100 µM (inactive) in the assay with SNB-75; > 100 µM (inactive) in the assay on CCRF-CEM; > 100 µM (inactive) in the assay on SNB-19; > 100 µM (inactive) in the assay on SK-OV-3; 8.02 µM (inactive) in the assay on HL-60. Further, the GI50 in the assay on OVCAR-3, in the assay with T47D, in the assay with OVCAR-5, in the assay with UACC-62, in the assay with SF-268 and with LOX IMVI was > 100 µM (inactive) throughout. Moreover, the GI50 in the assay with SR is > 100 µM (inactive).
Turning to `NC(=O)c1cn(C2OC(CO)C(O)C2O)c2nc[n+]([O-])c(N)c12` (configuration not stated), the GI50 is 0.153 µM (active) with KM12; 1.05 µM (active) in the assay with IGROV-1; 0.0333 µM (active) in the assay on SK-MEL-5; 0.342 µM (active) in the assay with MDA-MB-231; 0.592 µM (active) with BT-549; 0.178 µM (active) in the assay on PC-3. For the same compound, the GI50 with MCF7 was 0.2 µM (active); with SNB-75, 0.13 µM (active); in the assay on CCRF-CEM, 0.1 µM (active); with SNB-19 it was 0.542 µM (active); in the assay with SK-OV-3 it was 0.0906 µM (active); with OVCAR-3, 0.125 µM (active). The GI50 in the assay with T47D is 0.103 µM (active); in the assay with HOP-92, 0.67 µM (active); in the assay with OVCAR-5, 0.161 µM (active); in the assay on UACC-62 it was 0.12 µM (active); in the assay with SF-268, 0.23 µM (active); with LOX IMVI, 0.104 µM (active). Further, the GI50 in the assay with SR is 0.0509 µM (active).
Regarding `NCCSCCc1ccccc1`, the GI50 with KM12, in the assay on IGROV-1, in the assay with SK-MEL-5, with MDA-MB-231, with BT-549 and in the assay on PC-3 was > 100 µM (inactive) each time. The GI50 was > 100 µM (inactive) in the assay on MCF7; > 100 µM (inactive) in the assay with SNB-75; > 100 µM (inactive) with SNB-19; > 100 µM (inactive) in the assay on SK-OV-3; 68.2 µM (inactive) in the assay with OVCAR-3; 55.1 µM (inactive) in the assay with T47D. In addition, the GI50 was 72.1 µM (inactive) in the assay with HOP-92; > 100 µM (inactive) with OVCAR-5; > 100 µM (inactive) with UACC-62; > 100 µM (inactive) in the assay on SF-268; > 100 µM (inactive) in the assay with LOX IMVI; 88.3 µM (inactive) with SR.
On to `Sc1nnc(C23CC4CC(CC(C4)C2)C3)n1-c1ccc(Cl)cc1`, for which the GI50 with KM12 is 14.6 µM (inactive); in the assay on IGROV-1 it was 8.75 µM (inactive); in the assay with SK-MEL-5 it was 3.3 µM (inactive); with MDA-MB-231, 21.4 µM (inactive); in the assay on BT-549, 12.3 µM (inactive); with PC-3 it was 11.2 µM (inactive). Moreover, the GI50 in the assay on MCF7 was 13.1 µM (inactive); in the assay with SNB-75, 22.3 µM (inactive); with CCRF-CEM, 4.36 µM (inactive); in the assay with SNB-19, 27.2 µM (inactive); in the assay on SK-OV-3 it was 20 µM (inactive); with HL-60, 2.77 µM (inactive). Besides, the GI50 in the assay on OVCAR-3 is 10.8 µM (inactive); in the assay with T47D, 17.5 µM (inactive); with OVCAR-5, 35.4 µM (inactive); in the assay with UACC-62, 8.26 µM (inactive); with SF-268, 11.6 µM (inactive); in the assay with LOX IMVI it was 4.54 µM (inactive). Besides, in the assay on SR, the GI50 was 3.07 µM (inactive).
Turning to `O=C(Nc1sccc1S(=O)(=O)c1ccc(Cl)cc1)C(F)(F)F`, the GI50 with KM12 is 13.4 µM (inactive); with IGROV-1, 32.1 µM (inactive); in the assay with SK-MEL-5, 16 µM (inactive); with MDA-MB-231, 13.7 µM (inactive); with BT-549 it was 58.5 µM (inactive); with PC-3, 21.5 µM (inactive). Further, the GI50 with MCF7 was 28.8 µM (inactive); in the assay on SNB-75 it was 20.9 µM (inactive); in the assay on SNB-19, > 100 µM (inactive); with SK-OV-3 it was 30.3 µM (inactive); with OVCAR-3, 31 µM (inactive); in the assay on T47D it was 6.43 µM (inactive). In addition, the GI50 in the assay with HOP-92 was 23.6 µM (inactive); with OVCAR-5, 48.4 µM (inactive); in the assay on UACC-62, 9.27 µM (inactive); in the assay on SF-268 it was 17.5 µM (inactive); in the assay on LOX IMVI, 31 µM (inactive); in the assay with SR, 22.8 µM (inactive).
In the case of `CC(=O)N1C(Nc2ccccc2)CCN1c1ccccc1` (configuration not stated), the GI50 in the assay with IGROV-1 is > 10 µM (inactive); in the assay on SK-MEL-5, > 10 µM (inactive); in the assay with MDA-MB-231, > 10 µM (inactive); with BT-549 it was > 10 µM (inactive); in the assay on PC-3 it was 4.01 µM (inactive); with MCF7, > 10 µM (inactive). Also, the GI50 with SNB-75 was > 10 µM (inactive); in the assay with CCRF-CEM it was > 10 µM (inactive); in the assay on SNB-19, > 10 µM (inactive); in the assay on SK-OV-3, > 10 µM (inactive); in the assay on HL-60, 5.08 µM (inactive); in the assay on OVCAR-3, > 10 µM (inactive). For the same compound, the GI50 is > 10 µM (inactive) in the assay on T47D; > 10 µM (inactive) with HOP-92; > 10 µM (inactive) with OVCAR-5; 3.54 µM (inactive) in the assay on SF-268; > 10 µM (inactive) in the assay on LOX IMVI; > 10 µM (inactive) in the assay with SR.
Consider `CC(C)(C)OC(=O)NCCCCC(NC(=O)OCc1ccccc1)C(N)=O` (configuration not stated), for which the GI50 in the assay on KM12 is > 100 µM (inactive); with IGROV-1, > 100 µM (inactive); in the assay with SK-MEL-5, 58.3 µM (inactive); in the assay on MDA-MB-231 it was > 100 µM (inactive); in the assay with BT-549, > 100 µM (inactive); in the assay with PC-3 it was > 100 µM (inactive). Besides, the GI50 with MCF7, in the assay on SNB-75, with CCRF-CEM, in the assay with SNB-19, with SK-OV-3 and in the assay with HL-60 was > 100 µM (inactive) in each case. Further, the GI50 in the assay with OVCAR-3, with T47D, in the assay on OVCAR-5, with UACC-62, in the assay with SF-268 and with LOX IMVI was > 100 µM (inactive) in each case. For the same compound, in the assay with SR, the GI50 is > 100 µM (inactive).
Consider `NNc1nnc(-c2nnc(NN)o2)o1`, for which the GI50 in the assay on KM12, with IGROV-1, in the assay on SK-MEL-5, in the assay on MDA-MB-231, in the assay on BT-549 and in the assay with PC-3 was > 10 µM (inactive) in each case. In addition, the GI50 in the assay with MCF7, in the assay on CCRF-CEM, in the assay on SNB-19, with HL-60, in the assay on OVCAR-3 and in the assay on T47D was > 10 µM (inactive) throughout. In addition, the GI50 in the assay on HOP-92, in the assay on OVCAR-5, in the assay with UACC-62, in the assay on SF-268 and in the assay on SR was > 10 µM (inactive) in each case.
